Experimental data: ChEMBL document CHEMBL1240458, “Probing the binding site of curcumin in Escherichia coli and Bacillus subtilis FtsZ--a structural insight to unveil antibacterial activity of curcumin” (Eur J Med Chem, 2010)
≈ marks a conversion by molar mass, not a printed value. Calls of active or inactive are those of the source. No cut-off for these calls is given here.

Experiments:
[1] = Inhibition of FtsZ polymerization
[2] = Inhibition of FtsZ GTPase
[3] = system: Escherichia coli; experiment: Inhibition of Escherichia coli FtsZ polymerization
[4] = target: T1, Cell division protein FtsZ (Bacillus subtilis (strain 168), UniProt P17865); experiment: Inhibition of Bacillus subtilis FtsZ polymerization
T1 sequence (P17865 whole entry): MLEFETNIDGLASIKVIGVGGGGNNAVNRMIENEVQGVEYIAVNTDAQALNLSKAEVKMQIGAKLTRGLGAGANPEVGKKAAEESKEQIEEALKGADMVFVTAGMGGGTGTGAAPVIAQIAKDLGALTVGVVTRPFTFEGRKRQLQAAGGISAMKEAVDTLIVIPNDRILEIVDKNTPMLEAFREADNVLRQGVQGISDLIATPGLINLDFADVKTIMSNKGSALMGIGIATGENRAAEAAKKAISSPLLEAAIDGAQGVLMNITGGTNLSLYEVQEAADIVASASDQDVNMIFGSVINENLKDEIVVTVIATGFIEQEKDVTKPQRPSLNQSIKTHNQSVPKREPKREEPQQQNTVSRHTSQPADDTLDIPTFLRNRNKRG

inhibition [3] | IC50 [4] | Structure (SMILES) | IC50 [1] | IC50 [2]
– | – | COC(=O)CC1Cc2cc3cc(OC)c(-c4c(OC)cc5cc6c(c(O)c5c4O)C(=O)OC(CC(=O)OC)C6)c(O)c3c(O)c2C(=O)O1 (centres undefined) [VIRIDITOXIN] | 8.2 µg/mL (≈ 12.4 µM) | 7 µg/mL (≈ 10.6 µM)
Active | 30 µM | COc1cc(/C=C/C(=O)CC(=O)/C=C/c2ccc(O)c(OC)c2)ccc1O [CURCUMIN] | – | –
